Assay results as given in patent US20220079915A1, “IMMUNOSUPPRESSIVE PHARMACEUTICAL COMPOSITION AND APPLICATION THEREOF” (Shanghai Archeus Biotech Co., Ltd., priority 2018, published 2022).

What was measured:
[1] = tested on: mouse spleen Naïve CD4+ T cells; assay: Compound cytotoxicity detection, lactate dehydrogenase (LDH) release; assay type: cell-based; conditions: 4 hours incubation; FIG. 9
Experimental: 1) Separated fresh spleens from adult C57BL/6 female mice (8-12 weeks old), and ground and filtered through a […] nylon cell strainer to obtain a single cell suspension in pre-cooled PBS; 2) Seeded primary CD4+ T cells in 96-well plate with a density of 1×10^5/90 μL. The medium was 1640 medium (serum-free); 3) Added the serially diluted compounds formulated in a volume of 10 μL to designated wells; 4) Incubated the cells for 4 hours at 37 degrees Celsius and 5% CO2; 5) Detected lactate dehydrogenase (LDH) release according to CytoTox-one Homogeneous Membrane Integrity Assay Kit instructions.

[2] = tested on: mouse psoriasis model induced by Imiquimod; assay: Mouse psoriasis model induced with imiquimod; assay type: in vivo; conditions: for relieving of inflammatory thickening of the model right ear: end point of 7-day administration
Experimental: Animal strain: 28 male BALB/c mice, 6-8 weeks old, SPF environment, 12 hours light and dark cycle, 24-26 degrees Celsius. Blank group: no treatment, n=3; […] High-dose compound test group: 3.5 mg/kg drug intraperitoneal injection+5% imiquimod ointment, n=5; Low-dose compound test group: 0.8 mg/kg drug intraperitoneal injection+5% imiquimod ointment, n=5; Combined drugs test group: 0.8 mg/kg drug intraperitoneal injection+0.0025% PGE2 (administered epidermally in 75% ethanol)+5% imiquimod ointment, n=5; Day 0: anesthetized the mouse, shaved the back with an area about 2*3 cm; Day1-7: every other day, measured the mouse body weight, left and right ear thickness, and observed the skin to obtain a score; Day7: killed the mouse, sampled the back skin and fixed in 4% PFA solution for H&E staining; Model Group Induced with Imiquimod: Day 0: anesthetized the mouse, shaved the back with an area about 2*3 cm; Day1-7: every other day, measured the mouse body weight, left and right ear thickness, and observed the skin to obtain a score; […] Massaged moderately against the direction of the hair to help absorption; Day1-7: […] Massaged moderately against the direction of the hair to help absorption; Day7: killed the mouse, sampled the back skin and fixed in 4% PFA solution for H&E staining; Day 0: anesthetized the mouse, shaved the back with an area about 2*3 cm; Day1-7: every other day, measured the mouse body weight, left and right ear thickness, and observed the skin to obtain a score; […] Day1-7: then injected intraperitoneally 3.5 mg/kg in 200 μL sterile DPBS; Day1-7: then applied 62.5 mg of imiquimod ointment on the shaved area on the back of each mouse, applied 250 μg of imiquimod ointment on the inside and outside of the right ear, and massaged moderately against the direction of hair to help absorption; Day7: killed the mouse, sampled the back skin and fixed in 4% PFA solution for H&E staining; Day 0: anesthetized the mouse, shaved the back with an area about 2*3 cm; Day1-7: every other day, measured the mouse body weight, left and right ear thickness, and observed the skin to obtain a score; […] Day1-7: then injected intraperitoneally 0.8 mg/kg in 200 μL sterile DPBS; Day1-7: then applied 62.5 mg of imiquimod ointment on the shaved area on the back of each mouse, applied 250 μg of imiquimod ointment on the inside and outside of the right ear, and massaged moderately against the direction of hair to help absorption; Day7: killed the mouse, sampled the back skin and fixed in 4% PFA solution for H&E staining; Group Treated with Compound in Combination with PGE2: Day 0: anesthetized the mouse, shaved the back with an area about 2*3 cm; Day1-7: every other day, measured the mouse body weight, left and right ear thickness, and observed the skin to obtain a score; Day1-7: […] Day-7: then injected intraperitoneally 0.8 mg/kg in 200 μL sterile DPBS; Day1-7: one hour after PGE2 administration, applied 62.5 mg of imiquimod ointment on the shaved area on the back of each mouse, and applied 250 μg of imiquimod ointment on the inside and outside of the right ear. […] The area was fixed in the disease model and was not considered, and the other three aspects were quantified as follows: 0=asymptomatic, 1=mild, 2=moderate, 3=significant, 4=very significant; Changes of the thickening of the ear; Body weight; Skin histological changes (H&E staining).

[3] = high-dose group 3.5 mg/kg intraperitoneal
[4] = low-dose group 0.8 mg/kg intraperitoneal

## C=C[C@@]1(C)CC(=O)C2(O)[C@@]3(C)C(O)CCC(C)(C)C3[C@H](OC(=O)CCN(C)C)[C@H](OC(C)=O)[C@@]2(C)O1.Cl (stereo partly drawn) [6-[3-(dimethylamino)propionyl]forskolin hydrochloride]
[1]
  toxicity to CD4+ T cells (lactate dehydrogenase release): not significantly toxic
[2]; day 7, compared with the model group, FIG. 20
  thickness of epidermis and stratum corneum of back skin (H&E staining): different degrees of thickness reduction
[2]; [3]
  day of administration on which disease alleviation showed (back skin psoriasis-like index score): 3 days
  relieving of inflammatory thickening of the model right ear: 39%
[2]; [4]
  day of administration on which the effect began (back skin psoriasis-like index score): 5 days
  relieving of inflammatory thickening of the model right ear: 30%
